Reference: publication PMC3608651, “A Broad Profile of Co-Dominant Epitopes Shapes the Peripheral Mycobacterium tuberculosis Specific CD8+ T-Cell Immune Response in South African Patients with Active Tuberculosis” (PLoS ONE, 2013)
Like-named read-outs stand apart in the source and are kept apart here. Marks after values point to notes of the source that are not given here.

Columns and labels:
HLA-B*58:01 [1] = target: T1, HLA-B*58:01 (Homo sapiens, UniProt P01889, A329T/C349S/D201E/D98Y/E176V/E187L/E204Q/E69T/G107R/I218V/I90N/K202T/L105A/L119I/N104I/N87E/Q89R/Q94S/R106L/R155S/R180L/R86G/S101N/S121R/S35A/S48A/T118I/V127L/V306I/V36M/Y140S/Y91M); type: binding; settings: percent relative the binding of positive control peptide […]; duplicated experiments; positive binder >40%
HLA-A*02:01 [2] = target: T2, HLA-A*02:01 (Homo sapiens, UniProt P04439, D140Y/D185E/D98H/E176V/E277Q/G131W/G231S/I119V/I121R/I166T/I218V/L300P/L318F/N151K/N90K/P208A/P217A/Q86G/Q94H/R138H/R169H/T345S); type: binding; settings: time points 0-8 h; time when 50% of peptide has dissociated
HLA-A*30:02 [3] = target: T3, HLA-A*30:02 (Homo sapiens, UniProt P04439, D101N/D140H/D185E/E176R/F33S/G80R/H175R/K168Q/Q94H/R138E/R41S/V100E); type: binding; settings: percent relative the binding of positive control peptide […]; duplicated experiments; positive binder >40%
HLA-A*30:01 [4] = target: T4, HLA-A*30:01 (Homo sapiens, UniProt P04439, D140H/D185E/E176W/F33S/G80R/H175R/K168Q/R138E/R41S); type: binding; settings: percent relative the binding of positive control peptide […]; duplicated experiments; positive binder >40%
HLA-A*68:01 [5] = target: T5, HLA-A*68:01 (Homo sapiens, UniProt P04439, A269V/D185E/E176V/E277Q/E87N/F33Y/G231S/I121M/I166T/I218V/L180W/L300P/L318F/N151K/P208A/P217A/Q86R/R169H/T345S); type: binding
HLA-B*58:01 [6] = target: T1, HLA-B*58:01; type: binding; settings: time points 0-8 h
HLA-A*30:01 [7] = target: T4, HLA-A*30:01; assay: off-rate assay (t1/2); type: binding; settings: time points 0-8 h
HLA-C*07:01 = HLA-C*07:01 (Homo sapiens, UniProt P10321, K90N/S123Y); type: binding; settings: percent relative the binding of positive control peptide […]; duplicated experiments; positive binder >40%
HLA-A*24:02 [8] = target: T6, HLA-A*24:02 (Homo sapiens, UniProt P04439, D101N/D140Y/D185E/E176V/E190D/F33S/G103R/G107R/I119L/I121M/I306V/K335N/L105A/L180Q/L300P/N151K/N90K/Q86E/Q94H/R106L/R138H/R89G/T104I/T345S/V100E/W191G/Y123F); type: binding; settings: percent relative the binding of positive control peptide […]; duplicated experiments; positive binder >40%
HLA-B*58:01 [9] = target: T1, HLA-B*58:01; type: binding
HLA-A*68:01 [10] = target: T5, HLA-A*68:01; type: binding; settings: time points 0-8 h
HLA-B*07:02 = HLA-B*07:02 (Homo sapiens, UniProt P01889); type: binding; settings: percent relative the binding of positive control peptide […]; duplicated experiments; positive binder >40%
HLA-A*02:01 [11] = target: T2, HLA-A*02:01; type: binding; settings: […]; peptide quantity for 50% binding saturation
HLA-A*02:01 [12] = target: T2, HLA-A*02:01; type: binding; settings: percent relative the binding of positive control peptide […]; plate-bound monomer 0.5 µg/ml; duplicated experiments; positive binder >40%
HLA-A*30:01 [13] = target: T4, HLA-A*30:01; assay: affinity assay (ED50); type: binding; settings: peptide titrated 10−4 to 10−9 M
HLA-A*68:01 [14] = target: T5, HLA-A*68:01; type: binding; settings: percent relative the binding of positive control peptide […]; duplicated experiments; positive binder >40%
HLA-A*30:02 [15] = target: T3, HLA-A*30:02; type: binding; settings: time points 0-8 h
HLA-A*30:02 [16] = target: T3, HLA-A*30:02; type: binding
HLA-A*24:02 [17] = target: T6, HLA-A*24:02; settings: wild-type epitopes marked *; cited from earlier work
HLA-A*30:02 [18] = target: T3, HLA-A*30:02; settings: percent relative the binding of a positive control peptide; wild-type epitopes marked **; cited from earlier work
HLA-A*24:02 [19] = target: T6, HLA-A*24:02; settings: wild-type epitopes marked *; cited from earlier work; remark: listed apart in the source
HLA-A*30:02 [20] = target: T3, HLA-A*30:02; settings: wild-type epitopes marked **; cited from earlier work
HLA-A*30:02 [21] = target: T3, HLA-A*30:02; settings: wild-type epitopes marked **; cited from earlier work; remark: listed apart in the source
HLA-A*24:02 [22] = target: T6, HLA-A*24:02; settings: percent relative the binding of a positive control peptide; wild-type epitopes marked *; cited from earlier work
HLA-A*02:01 [23] = target: T2, HLA-A*02:01; settings: wild-type epitopes marked *; cited from earlier work
HLA-A*02:01 [24] = target: T2, HLA-A*02:01; settings: percent relative the binding of a positive control peptide; wild-type epitopes marked *; cited from earlier work
HLA-A*02:01 [25] = target: T2, HLA-A*02:01; settings: wild-type epitopes marked *; cited from earlier work; remark: listed apart in the source

With AAYHPQQFI the “Bind B*58:01” value (HLA-B*58:01 [1]) was 64%, the “O-rate A*02:01 (t1/2)” value (HLA-A*02:01 [2]) was 1.2 h and the “Bind A*30:02” value (HLA-A*30:02 [3]) was 34%. For the same substance, the “Bind A*30:01” value (HLA-A*30:01 [4]) was 83%, the “Aff A*68:01 (ED50)” value (HLA-A*68:01 [5]) was 3E -05 M and the “O-rate B*58:01 (t1/2)” value (HLA-B*58:01 [6]) was 0.8 h. The “O-rate A*30:01 (t1/2)” value (HLA-A*30:01 [7]) was 0.5 h, the “Bind C*07:01” value (HLA-C*07:01) was 0% and the “Bind A*24:02” value (HLA-A*24:02 [8]) was 54%. The “Aff B*58:01 (ED50)” value (HLA-B*58:01 [9]) was 4E -08 M, the “O-rate A*68:01 (t1/2)” value (HLA-A*68:01 [10]) was 3.8 h and the “Bind B*07:02” value (HLA-B*07:02) was 9%. For the same substance, the “Aff A*02:01 (ED50)” value (HLA-A*02:01 [11]) was 6E -07 M, the “Bind A*02:01” value (HLA-A*02:01 [12]) was 56% and the “Aff A*30:01 (ED50)” value (HLA-A*30:01 [13]) was 2E -07 M. For the same substance, the “Bind A*68:01” value (HLA-A*68:01 [14]) was 47%.

For KLVANNT RL, the “Bind B*58:01” value (HLA-B*58:01 [1]) was 40%, the “Bind A*30:02” value (HLA-A*30:02 [3]) was 167% and the “Bind A*30:01” value (HLA-A*30:01 [4]) was 60%. For the same substance, the “O-rate A*30:02 (t1/2)” value (HLA-A*30:02 [15]) was 2.2 h, the “O-rate A*30:01 (t1/2)” value (HLA-A*30:01 [7]) was 0.7 h and the “Bind C*07:01” value (HLA-C*07:01) was 13%. For the same substance, the “Bind A*24:02” value (HLA-A*24:02 [8]) was 73%, the “Aff A*30:02 (ED50)” value (HLA-A*30:02 [16]) was 1E -07 M and the “Bind B*07:02” value (HLA-B*07:02) was 43%. For the same substance, the “Bind A*02:01” value (HLA-A*02:01 [12]) was 81%, the “Aff A*30:01 (ED50)” value (HLA-A*30:01 [13]) was 2E -08 M and the “Bind A*68:01” value (HLA-A*68:01 [14]) was 18%.

With NFVRSSNLK the “Bind B*58:01” value (HLA-B*58:01 [1]) was 10%, the “Bind A*30:02” value (HLA-A*30:02 [3]) was 0% and the “Bind A*30:01” value (HLA-A*30:01 [4]) was 101%. The “Aff A*68:01 (ED50)” value (HLA-A*68:01 [5]) was 3E -06 M, the “O-rate A*30:01 (t1/2)” value (HLA-A*30:01 [7]) was 0.4 h and the “Bind C*07:01” value (HLA-C*07:01) was 0%. For the same substance, the “Bind A*24:02” value (HLA-A*24:02 [8]) was 0%, the “O-rate A*68:01 (t1/2)” value (HLA-A*68:01 [10]) was 0.2 h and the “Bind B*07:02” value (HLA-B*07:02) was 0%. The “Bind A*02:01” value (HLA-A*02:01 [12]) was 3%, the “Aff A*30:01 (ED50)” value (HLA-A*30:01 [13]) was 9E -07 M and the “Bind A*68:01” value (HLA-A*68:01 [14]) was 84%.

In the case of MYNYPAMLG [Rv0288_5–13wt], the “Aff A*24:02 (ED50)” value (HLA-A*24:02 [17]) is given as 600 nM, the “Bind A*30:02” value (HLA-A*30:02 [18]) is given as 45** percent and the “O-rate A*24:02 (t1/2)” value (HLA-A*24:02 [19]) is given as 1.4 h. The “O-rate A*30:02 (t1/2)” value (HLA-A*30:02 [20]) was 0.6 h, the “Aff A*30:02 (ED50)” value (HLA-A*30:02 [21]) was 7000 nM and the “Bind A*24:02” value (HLA-A*24:02 [22]) was 72* percent.

In the case of TLQSLGAEI [Rv0288_24–32wt], the “Aff A*24:02 (ED50)” value (HLA-A*24:02 [17]) is given as 90 nM, the “O-rate A*02:01 (t1/2)” value (HLA-A*02:01 [23]) is given as 1.7 h and the “O-rate A*24:02 (t1/2)” value (HLA-A*24:02 [19]) is given as 39.8 h. The “Bind A*24:02” value (HLA-A*24:02 [22]) was 16* percent, the “Bind A*02:01” value (HLA-A*02:01 [24]) was 46* percent and the “Aff A*02:01 (ED50)” value (HLA-A*02:01 [25]) was 3000 nM.

For AMLGHAGDM [Rv0288_10–18wt], the “Aff A*24:02 (ED50)” value (HLA-A*24:02 [17]) is given as 100000 nM, the “O-rate A*02:01 (t1/2)” value (HLA-A*02:01 [23]) is given as 1.7 h and the “Bind A*30:02” value (HLA-A*30:02 [18]) is given as 97** percent. The “O-rate A*24:02 (t1/2)” value (HLA-A*24:02 [19]) was 3.1 h, the “O-rate A*30:02 (t1/2)” value (HLA-A*30:02 [20]) was 1.2 h and the “Aff A*30:02 (ED50)” value (HLA-A*30:02 [21]) was 50 nM. The “Bind A*24:02” value (HLA-A*24:02 [22]) was 25* percent, the “Bind A*02:01” value (HLA-A*02:01 [24]) was 46* percent and the “Aff A*02:01 (ED50)” value (HLA-A*02:01 [25]) was 6000 nM.
